Entries after “also recorded” stand apart in the source; their conditions may differ.
How the values were obtained:
Format in all cases: physicochemical
[1] = Surface tension, force tensiometer with Wilhelmy plate; settings: water
Method: Surface activities of OPAC, OPAS, and OPAH were determined using a force tensiometer with a platinum Wilhelmy plate (Sigma 702, Biolin Scientific). The test temperatures were 30° C. and 60° C. The plate was flushed with deionized water before heating it red hot to ensure it was properly cleaned. The surface tension of deionized water was measured three times to check if the cleanup procedure yielded repeatable results. The samples were covered to minimize evaporation, but with enough space to let the plate go through the covering during the measurement.
The surface tension data was used to estimate other properties using the following equations:
[formula] [formula] [formula] where cmc is critical micelle concentration, γ0 represents surface tension of water without surfactant, γcmc is surface tension at cmc, πcmc Represents the ability of the surfactant to reduce the surface tension, rmax is the maximum surface access, Avogadro number is represented by NA, dγ/dlnC is the slope, C represents the concentration of surfactant, temperature, and gas constant are represented by T and R, respectively, Amin is the minimum area per molecule, and the values of n is 1 for zwitterionic surfactants. Synthesis

[2] = Salt tolerance / solubility of surfactant solutions in DW, SW and FW; settings: for Solubility and salt tolerance in DW, SW and FW: 10 wt % solutions in DW; for Solubility and salt tolerance in DW, SW and FW / Precipitation or phase separation of solutions in FW, SW and DW / Precipitation or phase separation in formation water (FIG. 5) / Precipitation or phase separation in seawater (FIG. 4): 90 days at 90° C.; for Solubility in simulated SW and FW: up to 90 days at 90° C.
Method: 10 wt % solutions of OPAC, OPAS, and OPAH were prepared in DW, SW, and FW and kept in the oven for 90 days at 90° C.

[3] = Thermogravimetric analysis (TGA), thermal stability; settings: 20° C./min, nitrogen; for Thermal stability by TGA, stable up to: 30-500° C.
Method: TGA graph was obtained using SDT Q600 machine (TA instrument) with continuous heating at 20° C./min. The heating range 30-500° C. with a stable flow of nitrogen at 100 mL/min.

Substance | Amin (minimum area per molecule) ([1]; 30° C.) [nm^2] | cmc ([1]; 30° C.) [mol/L] | Γmax × 10^6 (maximum surface excess) ([1]; 30° C.) [mol m^−2] | γcmc (surface tension at cmc) ([1]; 30° C.) [mN m^−1] | πcmc (ability to reduce the surface tension) ([1]; 30° C.) [mN/m] | Amin (minimum area per molecule) ([1]; 60° C.) [nm^2] | cmc ([1]; 60° C.) [mol/L] | Γmax × 10^6 (maximum surface excess) ([1]; 60° C.) [mol m^−2] | γcmc (surface tension at cmc) ([1]; 60° C.) [mN m^−1] | πcmc (ability to reduce the surface tension) ([1]; 60° C.) [mN/m] | Solubility and salt tolerance in DW, SW and FW [2] | Precipitation or phase separation of solutions in FW, SW and DW [2] | Precipitation or phase separation in formation water (FIG. 5) [2] | Precipitation or phase separation in seawater (FIG. 4) [2] | Solubility in simulated SW and FW [2] | Thermal stability by TGA, stable up to [3] [°C] | Initial loss in weight (TGA; associated with water and solvent) [3] [%] | Temperature of big weight loss / decomposition temperature (TGA) [3] [°C]
Oleyl Polyoxyethylene Amidopropyl Hydroxy Sulfobetaine [OPAH] | 0.62 | 7.1e-05 | 2.66 | 36.89 | 34.96 | 0.71 | 3.35e-05 | 2.33 | 33.68 | 38.07 | compatible and soluble with all kinds of water; also recorded: excellent solubility | no precipitation or phase separation was detected | no signs of precipitation or phase separation | no signs of precipitation or phase separation | soluble | ~300 | 29 | 307
Oleyl Polyoxyethylene Amidopropyl Sulfobetaine [OPAS] | 0.77 | 3.66e-05 | 2.15 | 37.04 | 35.59 | 1.01 | 3.41e-05 | 1.64 | 33.74 | 38.26 | compatible and soluble with all kinds of water; also recorded: excellent solubility | no precipitation or phase separation was detected | no signs of precipitation or phase separation | no signs of precipitation or phase separation | soluble | ~300 | 25 | 295
Oleyl Polyoxyethylene Amindopropyl Carboxybetaine [OPAC] | 0.97 | 0.000346 | 1.70 | 34.67 | 37.33 | 1.04 | 9.7e-05 | 1.58 | 32.24 | 39.76 | compatible and soluble with all kinds of water; also recorded: excellent solubility | no precipitation or phase separation was detected | no signs of precipitation or phase separation | no signs of precipitation or phase separation | soluble | ~300 | 30 | 312

Reference: patent publication US11866641B2, “Method for fracking subterranean geological formation with surfactant-containing fluid” (KING FAHD UNIVERSITY OF PETROLEUM AND MINERALS, priority 2019, dated 2024)
